Measured values from ChEMBL document CHEMBL1144356 (J Med Chem, 2005).
pEC50: −log10 of the molar value.

What was measured:
[1] = system: Cricetinae gen. sp.; experiment: Effect at an oral dose of 0.1 mg/kg/day for 14 days on serum triglyceride level of hamster; format: functional, Cricetulus griseus
[2] = target: T1, Peroxisome proliferator-activated receptor alpha (Homo sapiens, UniProt Q07869); experiment: Effective concentration against human PPAR-alpha in Gal4 transactivation assay; format: functional
T1 sequence (Q07869 whole entry): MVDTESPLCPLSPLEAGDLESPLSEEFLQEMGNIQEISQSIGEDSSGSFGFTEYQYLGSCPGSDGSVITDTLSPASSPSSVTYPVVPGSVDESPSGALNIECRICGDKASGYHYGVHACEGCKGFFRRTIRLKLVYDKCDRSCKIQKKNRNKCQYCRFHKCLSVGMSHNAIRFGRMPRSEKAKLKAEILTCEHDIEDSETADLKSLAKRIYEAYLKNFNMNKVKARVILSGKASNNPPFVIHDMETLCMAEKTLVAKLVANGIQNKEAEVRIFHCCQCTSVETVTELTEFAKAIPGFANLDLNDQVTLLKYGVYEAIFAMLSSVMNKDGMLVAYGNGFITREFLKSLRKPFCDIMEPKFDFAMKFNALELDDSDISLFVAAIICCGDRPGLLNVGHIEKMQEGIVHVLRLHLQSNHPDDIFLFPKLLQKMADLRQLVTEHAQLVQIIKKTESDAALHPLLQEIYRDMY

[3] = target: T2, Peroxisome proliferator-activated receptor alpha (Canis lupus familiaris, UniProt Q95N78); experiment: Effective concentration against canine PPAR-alpha in Gal4 transactivation assay
T2 sequence (Q95N78 whole entry): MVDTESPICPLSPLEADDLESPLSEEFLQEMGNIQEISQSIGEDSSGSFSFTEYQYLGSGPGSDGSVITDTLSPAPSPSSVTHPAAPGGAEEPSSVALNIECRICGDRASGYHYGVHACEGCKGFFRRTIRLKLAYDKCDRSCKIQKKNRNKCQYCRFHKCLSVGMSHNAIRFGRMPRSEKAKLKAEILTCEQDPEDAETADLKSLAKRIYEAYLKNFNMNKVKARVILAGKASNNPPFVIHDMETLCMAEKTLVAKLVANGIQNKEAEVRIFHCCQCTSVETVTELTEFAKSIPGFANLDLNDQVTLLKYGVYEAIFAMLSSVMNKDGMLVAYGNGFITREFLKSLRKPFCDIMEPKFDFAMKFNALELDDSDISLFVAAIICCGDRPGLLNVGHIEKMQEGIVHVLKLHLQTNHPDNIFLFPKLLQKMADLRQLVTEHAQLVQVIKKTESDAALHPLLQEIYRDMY

[4] = system: Cricetinae gen. sp.; experiment: Effect at an oral dose of 1 mg/kg/day for 14 days on serum cholesterol level of hamster; format: functional, Cricetulus griseus

pEC50 [2]: 8.70
pEC50 [3]: 8.70
SMILES: CC[C@@]1(C(=O)O)Cc2cc(OCCCOc3ccc(OC(F)(F)F)cc3Cl)ccc2O1
TG [1]: -11.78%
TC [4]: -42%
